# Reference: PubChem BioAssay AID1918943 (Molecular Pharmacology Branch, DTP, NCI, 2023)
# Tested on: 855422-203-R-J1-PDC complex spheroid viability
# Assay: Anticancer human tumor 855422-203-R-J1-PDC patient-derived bladder carcinoma cell line growth inhibition
# Conditions: for IC50: curve of first compound; for viability, T/C: stronger effect = lower value
# In short: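 Multicellular complex spheroids of tumor cells with human endothelial cells (HUVEC) and mesenchymal stem cells; the LSD1 inhibitor iadademstat was combined with standard-of-care or investigational agents. Top concentration at or near clinical Cmax, half-log dilutions; final DMSO ≤0.25%.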
# [1] = second compound 0.1 µM, first compound 0.00316 µM
# [2] = second compound 0.1 µM, first compound 0.01 µM
# [3] = second compound 0.1 µM, first compound 0.0316 µM
# [4] = second compound 0.1 µM, first compound 0.1 µM
# [5] = second compound 0.1 µM, first compound 0.316 µM
# [6] = second compound 0.1 µM, first compound 1 µM
# [7] = second compound 0.316 µM, first compound 0.00316 µM
# [8] = second compound 0.316 µM, first compound 0.01 µM
# [9] = second compound 0.316 µM, first compound 0.0316 µM
# [10] = second compound 0.316 µM, first compound 0.1 µM
# [11] = second compound 0.316 µM, first compound 0.316 µM
# [12] = second compound 0.316 µM, first compound 1 µM
# [13] = second compound 1 µM, first compound 0.00316 µM
# [14] = second compound 1 µM, first compound 0.01 µM
# [15] = second compound 1 µM, first compound 0.0316 µM
# [16] = second compound 1 µM, first compound 0.1 µM
# [17] = second compound 1 µM, first compound 0.316 µM
# [18] = second compound 1 µM, first compound 1 µM
# [19] = second compound 3.16 µM, first compound 0.00316 µM
# [20] = second compound 3.16 µM, first compound 0.01 µM
# [21] = second compound 3.16 µM, first compound 0.0316 µM
# [22] = second compound 3.16 µM, first compound 0.1 µM
# [23] = second compound 3.16 µM, first compound 0.316 µM
# [24] = second compound 3.16 µM, first compound 1 µM
# [25] = second compound 10 µM, first compound 0.00316 µM
# [26] = second compound 10 µM, first compound 0.01 µM
# [27] = second compound 10 µM, first compound 0.0316 µM
# [28] = second compound 10 µM, first compound 0.1 µM
# [29] = second compound 10 µM, first compound 0.316 µM
# [30] = second compound 10 µM, first compound 1 µM
# 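Note: drug exposure lasted 7 days starting on day 3 after seeding.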
# 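Throughout, for viability, T/C: luminescence viability as percent of DMSO vehicle wells = 100%.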
structure (smiles),measurement,setting,value
CCN(c1cc(-c2ccc(CN3CCOCC3)cc2)cc(C(=O)NCc2c(C)cc(C)[nH]c2=O)c1C)C1CCOCC1 + NC1CCC(NC2CC2c2ccccc2)CC1,IC50,second compound 0.1 µM,> 3000 nM
same,IC50,second compound 0.316 µM,> 3000 nM
same,IC50,second compound 1 µM,> 3000 nM
same,IC50,second compound 3.16 µM,> 3000 nM
same,IC50,second compound 10 µM,> 3000 nM
same,"viability, T/C","second compound 0.1 µM, first compound 0.00949 µM",86.3%
same,"viability, T/C","second compound 0.1 µM, first compound 0.03 µM",103%
same,"viability, T/C","second compound 0.1 µM, first compound 0.0949 µM",87%
same,"viability, T/C","second compound 0.1 µM, first compound 0.3 µM",86.7%
same,"viability, T/C","second compound 0.1 µM, first compound 0.949 µM",91.4%
same,"viability, T/C","second compound 0.1 µM, first compound 3 µM",82.9%
same,"viability, T/C","second compound 0.316 µM, first compound 0.00949 µM",85.3%
same,"viability, T/C","second compound 0.316 µM, first compound 0.03 µM",95.9%
same,"viability, T/C","second compound 0.316 µM, first compound 0.0949 µM",96.2%
same,"viability, T/C","second compound 0.316 µM, first compound 0.3 µM",91.4%
same,"viability, T/C","second compound 0.316 µM, first compound 0.949 µM",89.9%
same,"viability, T/C","second compound 0.316 µM, first compound 3 µM",91.1%
same,"viability, T/C","second compound 1 µM, first compound 0.00949 µM",92.3%
same,"viability, T/C","second compound 1 µM, first compound 0.03 µM",92.7%
same,"viability, T/C","second compound 1 µM, first compound 0.0949 µM",93.5%
same,"viability, T/C","second compound 1 µM, first compound 0.3 µM",88.3%
same,"viability, T/C","second compound 1 µM, first compound 0.949 µM",86.3%
same,"viability, T/C","second compound 1 µM, first compound 3 µM",91.8%
same,"viability, T/C","second compound 3.16 µM, first compound 0.00949 µM",91.3%
same,"viability, T/C","second compound 3.16 µM, first compound 0.03 µM",90.5%
same,"viability, T/C","second compound 3.16 µM, first compound 0.0949 µM",83.3%
same,"viability, T/C","second compound 3.16 µM, first compound 0.3 µM",87.6%
same,"viability, T/C","second compound 3.16 µM, first compound 0.949 µM",82%
same,"viability, T/C","second compound 3.16 µM, first compound 3 µM",95.9%
same,"viability, T/C","second compound 10 µM, first compound 0.00949 µM",84.1%
same,"viability, T/C","second compound 10 µM, first compound 0.03 µM",82.6%
same,"viability, T/C","second compound 10 µM, first compound 0.0949 µM",79.4%
same,"viability, T/C","second compound 10 µM, first compound 0.3 µM",79.5%
same,"viability, T/C","second compound 10 µM, first compound 0.949 µM",82.7%
same,"viability, T/C","second compound 10 µM, first compound 3 µM",83.7%
COc1cc(Nc2ncc3c(n2)-c2ccc(Cl)cc2C(c2c(F)cccc2OC)=NC3)ccc1C(=O)O + NC1CCC(NC2CC2c2ccccc2)CC1,IC50,second compound 0.1 µM,> 1000 nM
same,IC50,second compound 0.316 µM,> 1000 nM
same,IC50,second compound 1 µM,> 1000 nM
same,IC50,second compound 3.16 µM,892 nM
same,IC50,second compound 10 µM,> 1000 nM
same,"viability, T/C",[1],81%
same,"viability, T/C",[2],91.2%
same,"viability, T/C",[3],78.8%
same,"viability, T/C",[4],70.8%
same,"viability, T/C",[5],64.5%
same,"viability, T/C",[6],50.3%
same,"viability, T/C",[7],88.1%
same,"viability, T/C",[8],81.2%
same,"viability, T/C",[9],66.4%
same,"viability, T/C",[10],70.7%
same,"viability, T/C",[11],64.2%
same,"viability, T/C",[12],56.5%
same,"viability, T/C",[13],95.7%
same,"viability, T/C",[14],94.6%
same,"viability, T/C",[15],67.8%
same,"viability, T/C",[16],71.2%
same,"viability, T/C",[17],61.5%
same,"viability, T/C",[18],57%
same,"viability, T/C",[19],76.3%
same,"viability, T/C",[20],81.3%
same,"viability, T/C",[21],70.8%
same,"viability, T/C",[22],66.1%
same,"viability, T/C",[23],59.4%
same,"viability, T/C",[24],48.8%
same,"viability, T/C",[25],83.2%
same,"viability, T/C",[26],85.5%
same,"viability, T/C",[27],64.8%
same,"viability, T/C",[28],63%
same,"viability, T/C",[29],57.7%
same,"viability, T/C",[30],52.6%
CC(C)CC(NC(=O)C(Cc1ccccc1)NC(=O)c1cnccn1)B(O)O (stereo not given) + NC1CCC(NC2CC2c2ccccc2)CC1,IC50,second compound 0.1 µM,0.527 nM
same,IC50,second compound 0.316 µM,0.428 nM
same,IC50,second compound 1 µM,0.484 nM
same,IC50,second compound 3.16 µM,0.498 nM
same,IC50,second compound 10 µM,0.463 nM
same,"viability, T/C","second compound 0.1 µM, first compound 0.000316 µM",88%
same,"viability, T/C","second compound 0.1 µM, first compound 0.001 µM",2.43%
same,"viability, T/C",[1],0.03%
same,"viability, T/C",[2],0.01%
same,"viability, T/C",[3],0.02%
same,"viability, T/C",[4],0.1%
same,"viability, T/C","second compound 0.316 µM, first compound 0.000316 µM",67.2%
same,"viability, T/C","second compound 0.316 µM, first compound 0.001 µM",2.02%
same,"viability, T/C",[7],0.02%
same,"viability, T/C",[8],1.84%
same,"viability, T/C",[9],0.01%
same,"viability, T/C",[10],1.34%
same,"viability, T/C","second compound 1 µM, first compound 0.000316 µM",78.2%
same,"viability, T/C","second compound 1 µM, first compound 0.001 µM",1.83%
same,"viability, T/C",[13],0.03%
same,"viability, T/C",[14],0.01%
same,"viability, T/C",[15],0.01%
same,"viability, T/C",[16],2.03%
same,"viability, T/C","second compound 3.16 µM, first compound 0.000316 µM",81.7%
same,"viability, T/C","second compound 3.16 µM, first compound 0.001 µM",1.37%
same,"viability, T/C",[19],0.09%
same,"viability, T/C",[20],0.01%
same,"viability, T/C",[21],0.02%
same,"viability, T/C",[22],0.05%
same,"viability, T/C","second compound 10 µM, first compound 0.000316 µM",74.6%
same,"viability, T/C","second compound 10 µM, first compound 0.001 µM",0.29%
same,"viability, T/C",[25],0.05%
same,"viability, T/C",[26],0.08%
same,"viability, T/C",[27],0.12%
same,"viability, T/C",[28],0.14%
CC1(C)CCC(CN2CCN(c3ccc(C(=O)NS(=O)(=O)c4ccc(NCC5CCOCC5)c([N+](=O)[O-])c4)c(Oc4cnc5[nH]ccc5c4)c3)CC2)=C(c2ccc(Cl)cc2)C1 + NC1CC1c1ccc(-c2cccc(O)c2)cc1,IC50,second compound 0.1 µM,6250 nM
same,IC50,second compound 0.316 µM,6320 nM
same,IC50,second compound 1 µM,5810 nM
same,IC50,second compound 3.16 µM,5770 nM
same,IC50,second compound 10 µM,5480 nM
same,"viability, T/C",[3],90.2%
same,"viability, T/C",[4],104%
same,"viability, T/C",[5],93.5%
same,"viability, T/C",[6],94.5%
same,"viability, T/C","second compound 0.1 µM, first compound 3.16 µM",95.5%
same,"viability, T/C","second compound 0.1 µM, first compound 10 µM",18.6%
same,"viability, T/C",[9],87%
same,"viability, T/C",[10],101%
same,"viability, T/C",[11],101%
same,"viability, T/C",[12],103%
same,"viability, T/C","second compound 0.316 µM, first compound 3.16 µM",97.2%
same,"viability, T/C","second compound 0.316 µM, first compound 10 µM",18.6%
same,"viability, T/C",[15],85.9%
same,"viability, T/C",[16],92.1%
same,"viability, T/C",[17],90.3%
same,"viability, T/C",[18],91.5%
same,"viability, T/C","second compound 1 µM, first compound 3.16 µM",88.4%
same,"viability, T/C","second compound 1 µM, first compound 10 µM",15.8%
same,"viability, T/C",[21],85.4%
same,"viability, T/C",[22],87.3%
same,"viability, T/C",[23],89.4%
same,"viability, T/C",[24],91.1%
same,"viability, T/C","second compound 3.16 µM, first compound 3.16 µM",94.6%
same,"viability, T/C","second compound 3.16 µM, first compound 10 µM",13.8%
same,"viability, T/C",[27],79.7%
same,"viability, T/C",[28],82.9%
same,"viability, T/C",[29],82.6%
same,"viability, T/C",[30],82.5%
same,"viability, T/C","second compound 10 µM, first compound 3.16 µM",84.8%
same,"viability, T/C","second compound 10 µM, first compound 10 µM",14.5%
COc1cc(Nc2ncc3c(n2)-c2ccc(Cl)cc2C(c2c(F)cccc2OC)=NC3)ccc1C(=O)O + NC1CC1c1ccc(-c2cccc(O)c2)cc1,IC50,second compound 0.1 µM,670 nM
same,IC50,second compound 0.316 µM,284 nM
same,IC50,second compound 1 µM,89.7 nM
same,IC50,second compound 3.16 µM,275 nM
same,IC50,second compound 10 µM,135 nM
same,"viability, T/C",[1],96.4%
same,"viability, T/C",[2],103%
same,"viability, T/C",[3],84%
same,"viability, T/C",[4],68.6%
same,"viability, T/C",[5],56.2%
same,"viability, T/C",[6],46.5%
same,"viability, T/C",[7],96.9%
same,"viability, T/C",[8],96.4%
same,"viability, T/C",[9],71%
same,"viability, T/C",[10],61.2%
same,"viability, T/C",[11],49.9%
same,"viability, T/C",[12],44.4%
same,"viability, T/C",[13],82.5%
same,"viability, T/C",[14],93.4%
same,"viability, T/C",[15],69.5%
same,"viability, T/C",[16],51.8%
same,"viability, T/C",[17],45.8%
same,"viability, T/C",[18],46.1%
same,"viability, T/C",[19],88.3%
same,"viability, T/C",[20],95.5%
same,"viability, T/C",[21],69.9%
same,"viability, T/C",[22],61.4%
same,"viability, T/C",[23],50%
same,"viability, T/C",[24],43.4%
same,"viability, T/C",[25],85.7%
same,"viability, T/C",[26],94.1%
same,"viability, T/C",[27],63.1%
same,"viability, T/C",[28],56.8%
same,"viability, T/C",[29],44.2%
same,"viability, T/C",[30],39.5%
